Results on four compounds are retold here after patent publication US5624932A (priority 1995, dated 1997).

“Also recorded” adds a separate entry of the source. Bounds are passed on as bounds.

The test system of data set [1] is dorsal root ganglion (DRG) neurons. The class given is cell-based, mouse.
For data set [2], the system named is morphine-dependent rats. The arrangement: species or system Wistar rats. The following applies: rat, in vivo.
Data set [3] concerns opiate addicts. The following applies: in vivo.
Data set [4] relates to morphine-dependent monkeys. The arrangement: species or system rhesus monkeys (Macaca mulatta). The following applies: rhesus monkey, in vivo.
For data set [5], the system named is morphine-dependent monkeys. The following applies: rhesus monkey, in vivo.
For data set [6] the following is noted: in vivo; cited from earlier work.
The test system of data set [7] is chronic opioid-treated DRG neurons. The class given is cell-based, mouse.
For data set [8], the system named is dorsal root ganglion (DRG) neurons. The following applies: nM-μM; cited from earlier work.

As to `CN1CC[C@]23CCCC[C@H]2[C@H]1Cc1ccc(O)cc13` [Levorphenol], in data set [1], the “Alteration of action potential duration, opioid at high concentration” value is given as “Shortening” and the “Alteration of action potential duration, opioid at low concentration” value is on record as “Prolongation”.
Consider `CCC(=O)C(CC(C)N(C)C)(c1ccccc1)c1ccccc1` (stereo not shown) [Methadone, methadone], for which, in data set [2], the “prevention of body weight loss” value is listed as 48.15% and the “suppression of other withdrawal symptoms” value came to 49.4%. Moreover, in data set [2] (ip), the “effect on naloxone induced withdrawal symptoms” value is listed as “suppressed”. Also, in data set [2] (sc), the “effect on body weight loss” value was “prevent further body weight loss”; the “second naloxone test, withdrawal symptoms” value is “less severe withdrawal symptoms in comparison to the morphine group, yet more severe when compare with the DHE group”; the “significance of effect on body weight loss vs untreated (saline) control” value is “highly significant”. For the same compound, in data set [3], the “addiction resulting from substitution treatment” value was “invariably results in transfer to methadone addiction”, the “rebound of withdrawal symptoms” value was “often results in the rebound of withdrawal symptoms”, the “side effects during substitution treatment” value is “negligible” and the “time before symptomatic relief” value is given as “one to several”. For the same compound, in data set [4], the “Scores of withdrawal syndromes, 1st naloxone precipitation (X ± SD)” value stood at 17.0 ± 4.6; the “Scores of withdrawal syndromes, 2nd naloxone precipitation (X ± SD)” value is 1.3 ± 1.2; the “naloxone precipitation test on day 9” value is given as “naloxone precipitated withdrawal symptoms”; the “naloxone withdrawal symptoms after maintenance or substitution treatment” value is reported as “moderate naloxone withdrawal symptoms”. Also, in data set [4], the “withdrawal symptoms between injections during substitution” value was “some moderate withdrawal symptoms” and the “withdrawal symptoms during the first several days of substitution” value is reported as “partially suppressed”. Further, in data set [1], the “Alteration of action potential duration, opioid at high concentration” value is on record as “inhibitory APD-shortening” and the “Alteration of action potential duration, opioid at low concentration” value is given as “excitatory APD-prolonging; also recorded: Prolongation”.
As to `CN1CC[C@]23c4c5ccc(O)c4O[C@H]2[C@@H](O)C=C[C@H]3[C@H]1C5` [Morphine, morphine], the “time after withdrawal at which withdrawal symptoms began” value in data set [5] is given as “Sixteen”. Also, in data set [2], the “prevention of body weight loss” value amounted to 43.5% and the “suppression of other withdrawal symptoms” value was 45.5%. Also, in data set [2] (sc), the “time to complete recovery of weight loss” value is on record as 48 h and the “time to reversal of body weight loss” value came out at 3 h.
With `C=CCN1CC[C@]23c4c5ccc(O)c4O[C@H]2C(=O)CC[C@@]3(O)[C@H]1C5` [naloxone], the “oral or sublingual bioavailability” value in data set [6] was “low”. Also, in data set [2] (ip, 4 mg/kg), the “peak response of naloxone induced withdrawal symptoms” value is at most 15 min, the “time of maximum body weight loss after naloxone precipitation” value was determined as 24 h and the “time to gradual weight recovery after naloxone precipitation” value came to 90 h. In addition, the “naloxone effect on APD of chronic opioid-treated DRG neurons” value in data set [7] is on record as “excitatory APD-prolonging effect; also recorded: prolongs the APD”. Also, the “effect of naloxone on the APD of naive DRG neurons” value in data set [8] is “does not alter the APD; also recorded: ineffective”.
